One may read the Ki as the dissociation constant of the complex between target and ligand, obtained from inhibition or displacement.

T1 sequence (O00408 1-920 isoform O00408-2): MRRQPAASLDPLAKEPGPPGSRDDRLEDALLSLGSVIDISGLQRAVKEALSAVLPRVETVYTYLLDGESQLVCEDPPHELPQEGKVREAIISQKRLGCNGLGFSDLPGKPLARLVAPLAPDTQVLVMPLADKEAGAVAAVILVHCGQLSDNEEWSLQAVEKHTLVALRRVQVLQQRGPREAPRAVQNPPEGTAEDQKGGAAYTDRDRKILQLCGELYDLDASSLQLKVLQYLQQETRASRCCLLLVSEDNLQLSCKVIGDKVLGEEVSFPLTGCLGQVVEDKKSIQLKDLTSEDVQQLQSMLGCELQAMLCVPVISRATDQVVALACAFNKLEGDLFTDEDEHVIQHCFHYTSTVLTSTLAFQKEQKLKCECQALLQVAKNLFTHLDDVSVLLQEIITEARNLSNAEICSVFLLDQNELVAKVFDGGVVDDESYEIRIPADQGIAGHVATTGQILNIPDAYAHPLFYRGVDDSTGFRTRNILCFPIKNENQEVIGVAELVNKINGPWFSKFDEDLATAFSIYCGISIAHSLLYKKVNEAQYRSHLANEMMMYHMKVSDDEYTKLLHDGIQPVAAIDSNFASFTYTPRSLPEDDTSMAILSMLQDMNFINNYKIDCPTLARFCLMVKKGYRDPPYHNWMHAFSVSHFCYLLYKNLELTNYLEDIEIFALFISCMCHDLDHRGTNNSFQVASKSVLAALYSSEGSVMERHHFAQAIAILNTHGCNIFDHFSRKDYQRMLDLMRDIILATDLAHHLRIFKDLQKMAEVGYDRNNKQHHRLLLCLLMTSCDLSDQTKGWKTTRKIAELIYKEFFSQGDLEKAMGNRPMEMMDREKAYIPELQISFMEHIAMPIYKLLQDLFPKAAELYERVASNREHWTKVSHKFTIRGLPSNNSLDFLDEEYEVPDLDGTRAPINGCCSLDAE

This assay has as its target T1, human PDE2A1 (Homo sapiens, UniProt O00408).
T1 construct: GST; purchased BPS Bioscience (San Diego, Calif.) 60020; host or cells: insect cells
Nature of the assay: IMAP FP PDE selectivity panel, human PDE2A1. Format: biochemical. To be noted: Lab B; read-out: Human PDE2 Ki (nM) Lab B. Here is the method:
Selectivity for PDE2, as compared to other PDE families, was assessed using the IMAP® technology. Human PDE10A2 enzyme was prepared from cytosolic fractions of transiently transfected HEK cells.
Assays for PDE 1 through 11 were performed in parallel at room temperature in 384-well microtiter plates with an incubation volume of 20.2 μL. Solutions of test compounds were prepared in DMSO and serially diluted with DMSO to yield 30 μL of each of ten solutions differing by 3-fold in concentration, at 32 serial dilutions per plate. […] A Labcyte POD 810 (Labcyte, Sunnyvale, Calif.) was used to dispense 200 nL from each well of the titration plate to make eleven copies of the assay plate for each titration, one copy for each PDE enzyme. A solution of each enzyme (dilution from aliquots, sufficient to produce 20% substrate conversion) and a separate solution of FAM-labeled cAMP or FAM-labeled cGMP from Molecular Devices (Sunnyvale, Calif., product # R7506 or cGMP#R7508), at a final concentration of 50 nM were made in the assay buffer (10 mM Tris HCl, pH 7.2, 10 mM MgCl2, 0.05% NaN3 0.01% Tween-20, and 1 mM DTT). Note that the substrate for PDE2 is 50 nM FAM cAMP containing 1000 nM of cGMP. The enzyme and the substrate were then added to the assay plates in two consecutive additions of 10 μL and then shaken to mix. The reaction was allowed to proceed at room temperature for 60 minutes. A binding solution was then made from the kit components, comprised of 80% Solution A, 20% Solution B and binding reagent at a volume of 1/600 the total binding solution. The enzymatic reaction was stopped by addition of 60 μL of the binding solution to each well of the assay plate. The plates were sealed and shaken for 10 seconds. The plates were incubated at room temperature for one hour, then the parallel and perpendicular fluorescence was measured using a Tecan Genios Pro plate reader (Tecan, Switzerland). […] The intrinsic PDE2 inhibitory activity of a compound which may be used in accordance with the present invention may be determined by these assays.
As for `Fc1cc(C2(Nc3cc(C(F)(F)F)cc4ncnn34)CC2)ccc1C(F)(F)F` [Example 276, N-(1-(3-fluoro-4-(trifluoromethyl)phenyl)cyclopropyl)-7-(trifluoromethyl)-[1,2,4]triazolo[1,5-a]pyridin-5-amine], the inhibitory constant (Ki) was found to be 68 nM.

Consider `Cc1cc(NC2(c3ccc(SC(F)(F)F)cc3)CCC2)n2ncnc2n1` [Example 65, 5-Methyl-N-(1-{4-[(trifluoromethyl)sulfanyl]phenyl}cyclobutyl)[1,2,4] triazolo[1,5-a]pyrimidin-7-amine], for which the inhibition constant Ki is 75 nM.

Turning to `Cc1cc(N(C)C(c2ccc(OC(F)(F)F)c(F)c2)C(C)(C)O)n2ncnc2n1` (single isomer, unassigned) [Example 247, (R)- or (S)-1-(3-Fluoro-4-(trifluoromethoxy)phenyl)-2-methyl-1-(methyl(5-methyl-[1,2,4]triazolo [1,5-a]pyrimidine-7-yl)amino)propan-2-ol], the Ki worked out at 24 nM.

In the case of `C[C@@H](Nc1cc(CO)cc2ncnn12)c1ccc(OC(F)(F)F)cc1` [Example 271, [5-({(1R)-1-[4-(Trifluoromethoxy)phenyl]ethyl}amino)[1,2,4]triazolo[1,5-a]pyridin-7-yl] methanol], the inhibition constant (Ki) was 530 nM.

On to `CC(C)(C)[C@@H](Nc1cc(N)nc2ncnn12)c1ccc(C(F)(F)F)c(F)c1` [Example 240, (R)-N^7-(1-(3-Fluoro-4-(trifluoromethyl)phenyl)-2,2-dimethylpropyl)-[1,2,4]triazolo [1,5-a]pyrimidine-5,7-diamine], for which the Ki came to 108 nM.

In the case of `Cc1cc(NC2(c3ccc(C(F)(F)F)cc3)CCC2)n2ncnc2n1` [Example 64, 5-Methyl-N-{1-[4-(trifluoromethyl)phenyl]cyclobutyl}[1,2,4]triazolo [1,5-a]pyrimidin-7-amine], the Ki worked out at 77 nM.

With `Cc1cc(N[C@@H](c2ccc(C(F)(F)F)c(F)c2)C(C)(C)O)nc2ncnn12` (single isomer, unassigned) [Example 292], the Ki is more than 2960 nM.

Take `Cc1cc(N[C@H](c2ccc(C(F)(F)F)c(F)c2)C(C)(C)O)n2ncnc2n1` [Example 99, (1R)-1-[3-Fluoro-4-(trifluoromethyl)phenyl]-2-methyl-1-[(5-methyl [1,2,4]triazolo[1,5-a]pyrimidin-7-yl)amino]propan-2-ol]: the inhibitory constant (Ki) was found to be 555 nM.

In the case of `CC(C)c1cc(NC(c2ccc(OC(F)(F)F)cc2F)C(C)(C)O)n2ncnc2n1` (single isomer, unassigned) [Example 137, (1R or S)-1-[2-Fluoro-4-(trifluoro-methoxy)phenyl]-2-methyl-1-{[5-(1-methylethyl) [1,2,4]triazolo [1,5-a]pyrimidin-7-yl]amino} propan-2-ol], the Ki was determined as 436 nM.

Turning to `Cc1nc2ncnn2c(NC2(c3ccc(C(F)(F)F)c(F)c3)CC2)c1C` [Example 87, N-{1-[3-Fluoro-4-(trifluoromethyl)phenyl]cyclopropyl}-5,6-dimethyl[1,2,4]triazolo[1,5-a]pyrimidin-7-amine], the inhibition constant Ki is 132 nM.

For `Cc1cc(NC(c2ccc(OC(F)(F)F)cc2F)C(C)(C)O)n2nc(N)nc2n1` (stereo in doubt) [Example 258, (1S)-1-[(2-Amino-5-methyl[1,2,4]triazolo[1,5-a]pyrimidin-7-yl)amino]-1-[2-fluoro-4-(trifluoromethoxy)phenyl]-2-methylpropan-2-ol], the inhibition constant (Ki) was 6 nM.

For `COc1cc(C(F)(F)F)ccc1C(C)(C)Nc1cc(C)nc2ncnn12` [Example 48, N-{1-[2-Methoxy-4-(trifluoromethyl)phenyl]-1-methylethyl}-5-methyl [1,2,4]triazolo[1,5-a]pyrimidin-7-amine], the inhibition constant (Ki) came out at 474 nM.

In the case of `Cc1cc(NC2(c3ccc(C(C)(C)C)cc3)CC2)n2ncnc2n1` [Example 61, N-{1-[4-(tert-Butyl)phenyl]cyclopropyl}5-methyl-[1,2,4]triazolo[1,5-a]pyrimidin-7-amine], the inhibition constant (Ki) worked out at 81 nM.

Take `Cc1cc(NC(c2ccc(OC(F)(F)F)c(F)c2)C2COC2)n2ncnc2n1` (single isomer, unassigned) [Example 229, (R)- or (S)-N-((3-Fluoro-4-(trifluoromethoxy)phenyl)(oxetan-3-yl)methyl)-5-methyl-[1,2,4]triazolo [1,5-a]pyrimidin-7-amine]: the Ki was found to be 448 nM.

Take `Cc1cc(N[C@H](C)c2ccc(S(F)(F)(F)(F)F)cc2)n2ncnc2n1` [Example 12, 5-Methyl-N-{(1R)-1-[4-(pentafluoro-λ^6-sulfanyl)phenyl)ethyl} [1,2,4]triazolo[1,5-a]pyrimidin-7-amine]: the inhibitory constant (Ki) was 68 nM.

In the case of `Cc1cc(N[C@@H](c2ccc(OC(F)(F)F)cc2F)C(C)(C)O)n2ncnc2n1` [Example 93, (1S)-1-[2-Fluoro-4-(trifluoromethoxy)phenyl]-2-methyl-[(5-methyl-[1,2,4]triazolo[1,5-a]pyrimidin-7-yl)amino]propan-2-ol], the Ki worked out at 742 nM.

Regarding `CC[C@@H](Nc1cc(C)nc2ncnn12)c1ccc(C(F)(F)F)c(F)c1` [Example 16, N-{(1R)-1-[3-Fluoro-4-(trifluoromethyl)phenyl]propyl}-5-methyl[1,2,4]triazolo[1,5-a] pyrimidin-7-amine], the Ki turned out to be 61 nM.

Regarding `CC1(c2ccc(C(Nc3cc(C(F)(F)F)nc4ncnn34)C(C)(C)O)cc2)CC1` (single isomer, unassigned) [Example 179, (1S or R)-2-Methyl-1-[4-(1-methylcyclopropyl)phenyl]-1-{[5-(trifluoromethyl) [1,2,4]triazolo [1,5-a]pyrimidin-7-yl]amino} propan-2-ol], the Ki was more than 2960 nM.

For `Cc1cc(NC2(c3ccc(SC(F)(F)F)c(F)c3)CCC2)n2ncnc2n1` [Example 66, N-(1-{3-Fluoro-4-[(trifluoromethyl)sulfanyl]phenyl}cyclobutyl)-5-methyl[1,2,4]triazolo[1,5-a] pyrimidin-7-amine], the Ki was found to be 108 nM.

Regarding `CC(C)(N)C(Nc1cc(C(F)(F)F)nc2ncnn12)c1ccc(C(F)(F)F)c(F)c1` (single isomer, unassigned) [Example 253, (R)- or (S)-1-(3-Fluoro-4-(trifluoromethyl)phenyl)-2-methyl-N^1-(5-(trifluoromethyl)-[1,2,4]triazolo [1,5-a]pyrimidin-7-yl) propane-1,2-diamine], the inhibition constant Ki came to 83 nM.

As for `Cc1cc(NC(c2ccc(S(F)(F)(F)(F)F)cc2)C(C)(C)O)n2ncnc2n1` (single isomer, unassigned) [Example 116, (1S or R)-2-Methyl-1-[(5-methyl[1,2,4]triazolo[1,5-a]pyrimidin-7-yl)amino]-1-[4-(pentafluoro-λ^6-sulfanyl)phenyl] propan-2-ol], the inhibitory constant (Ki) was more than 2960 nM.

Take `CC(C)(O)C(Nc1cc(C(F)F)nc2ncnn12)c1ccc(OC(F)(F)F)c(F)c1` (single isomer, unassigned) [Example 187, (1S or R)-{[5-(Difluoromethyl) [1,2,4]triazolo [1,5-a]pyrimidin-7-yl]amino}-1-[3-fluoro-4-(trifluoromethoxy)phenyl]-2-methylpropan-2-ol]: the inhibition constant (Ki) came out at 5.5 nM.

Turning to `Cc1cc(N[C@@H](c2ccc(C(F)(F)F)c(F)c2)C2(C)CC2)n2ncnc2n1` [Example 43, N-[(R)-[3-Fluoro-4-(trifluoromethyl)phenyl](1-methylcyclopropyl)methyl]-5-methyl[1,2,4]triazolo[1,5-a] pyrimidin-7-amine], the inhibitory constant (Ki) was found to be 23 nM.

On to `Cc1cc(N[C@H](C)c2ccc(C(F)(F)F)c(F)c2)n2ncnc2n1` [Example 3, N-{(1R)-1-[3-Fluoro-4-(trifluoromethyl)phenyl]ethyl}-5-methyl[1,2,4]triazolo[1,5-a] pyrimidin-7-amine], for which the Ki came to 115 nM.

As to `CC(C)(O)C(Nc1cc(C(F)(F)F)nc2ncnn12)c1ccc(C(F)(F)F)cc1F` (single isomer, unassigned) [Example 173, (1S or R)-1-[2-Fluoro-4-(trifluoromethyl)phenyl]-2-methyl-1-{[5-(trifluoromethyl) [1,2,4]triazolo [1,5-a]pyrimidin-7-yl]amino} propan-2-ol], the inhibitory constant (Ki) is more than 2960 nM.

In the case of `CC(C)(C)c1ccc(C(Nc2cc(C(F)(F)F)nc3ncnn23)C(C)(C)O)cc1` (single isomer, unassigned) [Example 162, (1R or S)-1-(4-tert-Butylphenyl)-2-methyl-1-{[5-(trifluoromethyl) [1,2,4]triazolo [1,5-a]pyrimidin-7-yl]amino} propan-2-ol], the Ki is approximately 2050 nM.

In the case of `CC(C)(O)C(Nc1cc(C(F)F)nc2ncnn12)c1ccc(OC(F)F)cc1Cl` (single isomer, unassigned) [Example 184, (1R or S)-[2-Chloro-4-(difluoromethoxy)phenyl]-1-{[5-(difluoromethyl) [1,2,4]triazolo [1,5-a]pyrimidin-7-yl]amino}-2-methylpropan-2-ol], the Ki came out at 68 nM.

These data come from US10357481B2 (MERCK SHARP & DOHME CORP., priority 2015, dated 2019).
